Source: patent US10335374B2, “Tablet composition for anti-tuberculosis antibiotics” (priority 2014, dated 2019)
Converted amounts (≈) assume the structure as drawn. Read-outs that look alike come from different tables or passages of the source.

Experiments:
[1] = system: Mycobacterium Tuberculosis Infected Macrophages; details: intracellular, published study; cited from earlier work
[2] = system: Vero African green monkey kidney cell line; assay: Cytotoxicity towards eukaryotic cells; format: cell-based; details: Chlorocebus sabaeus, 48 h, two days
[3] = system: Murine J774 macrophages infected with a luminescent strain of H37Rv; format: cell-based, M. tuberculosis; details: intracellular
M. tuberculosis H37Rv [4] = assay: MIC, IC50 and IC90 under aerobic conditions (growth after five days); format: cell-based, Mycobacterium tuberculosis
M. tuberculosis H37Rv [5] = assay: Minimum bactericidal concentration (kill kinetics, 21 days); format: cell-based; details: for MBC: Mycobacterium tuberculosis, H37RV
M. tuberculosis = assay: IC50, IC90 and MIC of amikacin one and two component complexes; format: cell-based; details: Mycobacterium tuberculosis
H37Rv strain = assay: MIC of amikacin complexes, H37Rv strain; format: cell-based, M. tuberculosis; details: Mycobacterium tuberculosis, second set
[6] = clinical trials, compared to placebo groups; cited from earlier work
active TB = assay: MIC of capreomycin one and two component systems against active TB; format: cell-based, Mycobacterium tuberculosis
Protocol: The first antibiotic complex investigated with one and two component systems consisted of the second-line TB drug capreomycin which was bound to the copper(II) cation and the aggregate forming water soluble unbranched polymer PEG-3350. […] MIC values are defined as the lowest concentration of an antimicrobial (i.e. antifungal, antibiotic or bacteriostatic) drug that will inhibit the visible growth of a microorganism after incubation and is a common unit used to describe the level of efficacy of an antibiotic against a bacterium.

[7] = rats (oral); cited from earlier work
[8] = in vivo; cited from earlier work
[9] = Mycobacterium tuberculosis, H37RV, aerobic conditions, glucose series
[10] = Mycobacterium tuberculosis, H37RV, aerobic conditions, isoniazid-sucrose series, equal molar ratios
[11] = Mycobacterium tuberculosis, H37RV, aerobic conditions, rifampicin complexes, second set

COc1c(N2CC[C@@H](C(C)(C)N)C2)c(F)cc2c(=O)c3c(=O)[nH]sc3n(C3CC3)c12 [ACH-702]
drop of activity, log(kill) units [1]: ~1.3 log(kill) units

NNC(=O)c1ccncc1 [Isoniazid (INH), isoniazid]
IC50 [2]: > 100000 nM | average log(kill) value ([3]; average of table eight): 2.5 | Log Kill ([3]; concentration 1.2 μM): 2.5 | Log Kill ([3]; concentration 12 μM): 2.5 | IC50 (M. tuberculosis H37Rv [4]; [9]): 470 nM | IC90 (M. tuberculosis H37Rv [4]; [9]): 620 nM | MIC (M. tuberculosis H37Rv [4]; Mycobacterium tuberculosis, H37RV, aerobic conditions, glucose series, read-out: MIC): 0.64 µM (≈ 0.0878 µg/mL) | IC50 (M. tuberculosis H37Rv [4]; [10]): 630 nM | IC90 (M. tuberculosis H37Rv [4]; [10]): 1000 nM | MIC (M. tuberculosis H37Rv [4]; Mycobacterium tuberculosis, H37RV, aerobic conditions, isoniazid-sucrose series, equal molar ratios, read-out: MIC): 0.97 µM | MBC (M. tuberculosis H37Rv [5]; isoniazid-sucrose series): 0.3 µM (≈ 0.0411 µg/mL)

Cn1nnc(-c2ccc(-c3ccc(N4C[C@H](CO)OC4=O)cc3F)cn2)n1 [Tedizolid]
drop of activity, log(kill) units [1]: approximately 1.4 log(kill) units

NCC[C@H](O)C(=O)N[C@@H]1C[C@H](N)[C@@H](O[C@H]2O[C@H](CN)[C@@H](O)[C@H](O)[C@H]2O)[C@H](O)[C@H]1O[C@H]1O[C@H](CO)[C@@H](O)[C@H](N)[C@H]1O [amikacin]
IC50 (M. tuberculosis): 216 nM | IC90 (M. tuberculosis): 328 nM | MIC (M. tuberculosis): 0.39 µM | MIC (H37Rv strain): 0.256 µM

COc1nc2ccc(Br)cc2cc1[C@@H](c1ccccc1)[C@@](O)(CCN(C)C)c1cccc2ccccc12 [bedaquiline, Bedaquiline]
deaths in recipient groups [6]: 11.4%

[Cl][Cu][Cl] [copper(II) chloride]
MIC (active TB): 0.39 µM | LD50 [7]: 140 mg/kg

CCO [ethyl alcohol]
LD50 [8]: 14,000 mg/kg

CO[C@H]1/C=C/O[C@@]2(C)Oc3c(C)c(O)c4c(O)c(c(/C=N/N5CCN(C)CC5)c(O)c4c3C2=O)NC(=O)/C(C)=C\C=C\[C@H](C)[C@H](O)[C@@H](C)[C@@H](O)[C@@H](C)[C@H](OC(C)=O)[C@@H]1C [rifampicin]
MIC (M. tuberculosis H37Rv [4]; Mycobacterium tuberculosis, H37RV, H37Rv strain, rifampicin complexes, first set, read-out: MIC): 0.006 µM (≈ 0.00494 µg/mL) | IC50 (M. tuberculosis H37Rv [4]; [11]): 3 nM | IC90 (M. tuberculosis H37Rv [4]; [11]): 3 nM | MIC (M. tuberculosis H37Rv [4]; Mycobacterium tuberculosis, H37RV, aerobic conditions, rifampicin complexes, second set, read-out: MIC): 0.004 µM (≈ 0.00329 µg/mL) | MBC (M. tuberculosis H37Rv [5]; rifampicin complexes): 0.06 µM (≈ 0.0494 µg/mL) | MBC/MIC (M. tuberculosis H37Rv [5]; rifampicin complexes): 15

[Cl-].[Na+] [sodium chloride]
LD50 [8]: 3,000 mg/kg

COc1cc(C=O)ccc1O [vanillin]
LD50 [8]: 1,580 mg/kg

capreomycin
MIC (active TB): 3.13 µM

copper (II) chloride dihydrate
MIC (M. tuberculosis H37Rv [4]; H37Rv strain, rifampicin complexes, first set): 105.7 µM

copper gluconate
LD50 [7]: 1710 mg/kg

vitamin A
LD50 [8]: 2,000 mg/kg
